Laboratory results as given in patent US20060251638A1, “Cytoprotection through the use of hif hydroxylase inhibitors” (priority 2003, published 2006).

Experiments:
[1] = test system: gene encoding adrenomedullin; assay: Adrenomedullin gene expression in Hep3B cells (microarray); format: cell-based, human; details: 25 μM compound, 6 hrs, average of two determinations
Experimental: Hep3B cells (ATCC No. HB-8064) were grown in DMEM containing 8% fetal bovine serum. Hep3B cells were seeded into 6-well culture dishes at ˜500,000 cells per well. After 8 hours, the media was changed to DMEM containing 0.5% fetal bovine serum and the cells were incubated for an additional 16 hours. Compound A, compound B, compound C, compound G, or compound H was added to the cells (25 μM final concentration) and the cells were incubated for various times. Control cells were incubated with vehicle (DMSO) with no compound treatment. Harvested cells were assessed for cell viability (GUAVA), or added to RNA extraction buffer (RNeasy, Qiagen) and stored at −20° C. for subsequent RNA purification.
RNA was precipitated in 0.3 M sodium acetate (pH 5.2), 50 ng/ml glycogen, and 2.5 volumes of ethanol for one hour at −20° C. Samples were centrifuged and pellets were washed with cold 80% ethanol, dried, and resuspend in water. Double stranded cDNA was synthesized using a T7-(dT)24 first strand primer (Affymetrix, Inc., Santa Clara Calif.) and the SUPERSCRIPT CHOICE system (Invitrogen) according to the manufacturer's instructions. The final cDNA was extracted with an equal volume of 25:24:1 phenol:chloroform:isoamyl alcohol using a PHASE LOCK GEL insert (Brinkman, Inc., Westbury N.Y.). The aqueous phase was collected and cDNA was precipitated using 0.5 volumes of 7.5 M ammonium acetate and 2.5 volumes of ethanol. Alternatively, cDNA was purified using the GENECHIP sample cleanup module (Affymetrix) according to the manufacturer's instructions.
Biotin-labeled cRNA was synthesized from the cDNA in an in vitro […] (IVT) reaction using a BIOARRAY HighYield RNA transcript labeling kit (Enzo Diagnostics, Inc., Farmingdale N.Y.) according to the manufacturer's instructions. Final labeled product was purified and fragmented using the GENECHIP sample cleanup module (Affymetrix) according to the manufacturer's instructions.
Hybridization cocktail was prepared by bringing 5 μg probe to 100 μl in 1× hybridization buffer (100 mM MES, 1 M [Na^+], 20 mM EDTA, 0.01% Tween 20), 100 μg/ml herring sperm DNA, 500 μg/ml acetylated BSA, 0.03 nM contol oligo B2 (Affymetrix), and 1× GENECHIP eukaryotic hybridization control (Affymetrix). The cocktail was sequentially incubated at 99° C. for 5 minutes and 45° C. for 5 minutes, and then centrifuged for 5 minutes. The […] array (Affymetrix) was brought to room temperature and then prehybridized with 1× hybridization buffer at 45° C. for 10 minutes with rotation. The buffer was then replaced with 80 μl hybridization cocktail and the array was hybridized for 16 hours at 45° C. at 60 rpm with counter balance. Following hybridization, arrays were washed once with 6×SSPE, 0.1% Tween 20, and then washed and stained using R-phycoerythrin-conjugated streptavidin (Molecular Probes, Eugene Oreg.), goat anti-streptavidin antibody (Vector Laboratories, Burlingame Calif.), and a GENECHIP Fluidics Station 400 instrument (Affymetrix) according to the manufacturer's EukGE-WS2v4 protocol (Affymetrix). Arrays were analyzed using a GENEARRAY scanner (Affymetrix) and Microarray Suite software (Affymetrix).
RNA quality was monitored by capillary electrophoresis (Agilent Bioanalyzer). […] Array performance was analyzed with Affymetrix MicroArray Suite (MAS) software and individual probe sets were assigned “present”, “marginal, and “absent” calls according to software defaults. […]

H9c2 rat cardiomyocytes = assay: Intracellular ATP levels in H9c2 cardiomyocytes after oxygen and glucose deprivation (glucose-free DMEM, 2 mM KCN); format: cell-based; details: H9c2, 20 μM pretreatment 24 hours, glucose-free DMEM and 2 mM KCN for 30 minutes; vehicle control 415
Experimental: In similar experiments, H9c2 rat cardiomyocytes were pretreated with either vehicle control (0.5% DMSO) or 20 μM of Compound A, Compound B, Compound C, Compound D, Compound E, Compound F, Compound G, or compound H. After 24 hours, cells were washed with serum-free DMEM and subjected to oxygen and glucose deprivation by incubating the cells in glucose-free DMEM and 2 mM KCN for 30 minutes. Intracellular ATP levels were then determined.

HO-1 protein = HO-1 protein levels in H9c2 cardiomyocytes by ELISA; format: cell-based, rat; details: H9c2, 100 μM compound; control 2.86
Experimental: In another series of experiments, H9c2 rat cardiomyocytes were treated with either vehicle control or with various concentrations (1 μM, 3 μM, 10 μM, 30 μM, and 100 μM) of compound C or compound G. Cell lysates were harvested and HO-1 protein levels determined by ELISA according to the manufacturer's instructions (cat # EKS-810; Stressgen, Victoria, BC, Canada). Data shown below in Table 4 represents values obtain with 100 μM compound.

[2] = test system: adrenomedullin gene expression; assay: Adrenomedullin gene expression in H9c2 cardiomyocytes with or without KCN challenge; format: cell-based, rat; details: H9c2, 10 μM compound 24 hours
Experimental: Adrenomedullin gene expression was also examined in cardiomyocytes treated with compound and subsequently challenged with KCN, an inhibitor of oxidative glucose metabolism. H9c2 rat cardiomyocytes were cultured in 96-well tissue culture plates (approximately 20,000 cells per well) in DMEM containing 10% fetal bovine serum. Media was changed to DMEM containing 0.5% fetal bovine serum, and the cells were treated with 10 μM compound C or compound D for 24 hours. Media was then replaced with glucose-free DMEM (Gibco/Invitrogen Cat. # 11966-025) containing 2 mM KCN (Sigma-Aldrich Cat. No. 207810). Results of adrenomedullin gene expression, presented as fold-increase in gene expression above DMSO control, are shown below in Table 2.

gene encoding HSP70-3 = assay: HSP70-3 mRNA levels in mouse tissues after oral dosing (microarray); format: in vivo
Experimental: Twelve Swiss Webster male mice (30-32 g) were obtained from Simonsen, Inc (Gilroy, Calif.) and treated by oral gavage two times per day for 2.5 days (5 doses) with a 4 ml/kg volume of either 0.5% carboxymethyl cellulose (CMC; Sigma-Aldrich, St. Louis Mo.) (0 mg/kg/day) or 2.5% compound H (25 mg/ml in 0.5% CMC) (200 mg/kg/day). Four hours after the final dose, the mice were then sacrificed and approximately 150 mg of liver and each kidney were isolated and stored in RNALATER solution (Ambion) at −20° C.
To determine gene induction patterns over time, twenty four Swiss Webster male mice (30-32 g) were obtained from Simonsen, Inc. and treated by oral gavage with a 4 ml/kg volume of either 0.5% carboxymethyl cellulose (CMC; Sigma-Aldrich, St. Louis Mo.) (0 mg/kg) or […] compound H (25 mg/ml in 0.5% CMC) (100 mg/kg). At 4, 8, 16, 24, 48, or 72 hours after the final dose, animals were anesthetized with isoflurane. The mice were then sacrificed and tissue samples of kidney, liver, brain, lung, and heart were isolated and stored in RNALATER solution (Ambion) at −80° C. RNA isolation and gene expression analysis were performed as described below.
RNA isolation was carried out using the following protocol. A section of each organ was diced, 875 μl of RLT buffer (RNEASY kit; Qiagen Inc., Valencia Calif.) was added, and the pieces were homogenized for about 20 seconds using a rotor-stator POLYTRON homogenizer (Kinematica, Inc., Cincinnati Ohio). […] The RNA was eluted into […] of water and quantitated with RIBOGREEN reagent (Molecular Probes, Eugene Oreg.). The absorbance at 260 and 280 nm was measured to determine RNA purity and concentration.
Alternatively, tissue samples were diced and homogenized in TRIZOL reagent (Invitrogen Life Technologies, Carlsbad Calif.) using a rotor-stator POLYTRON homogenizer (Kinematica). […] The absorbance at 260 and 280 nm was measured to determine RNA purity and concentration. […]

[3] = then glucose-free DMEM with 2 mM KCN
[4] = Animal Study III: mice, oral gavage, 100 mg/kg

SMILES	Adrenomedullin gene expression, fold-increase above non-treated control [1]	ATP (relative light units) (H9c2 rat cardiomyocytes)	also measured
O=C(O)c1c[nH]c2c(ccc3cccnc32)c1=O [Compound A, 4-Oxo-1,4-dihydro-[1,10]phenanthroline-3-carboxylic acid]	3.582 fold	968.5 relative light units	
COc1ccc(CCN(CCC(=O)NO)S(=O)(=O)c2ccc(NC(=O)N(Cc3ccccc3)Cc3ccccc3)cc2)cc1 [Compound B, 3-{[4-(3,3-Dibenzyl-ureido)-benzenesulfonyl]-[2-(4-methoxy-phenyl)-ethyl]-amino}-N-hydroxy-propionamide]	8.334 fold	683.5 relative light units	
O=C(O)CNC(=O)c1ncc2cc(Sc3ccccc3)ccc2c1O [Compound C, [(4-Hydroxy-7-phenylsulfanyl-isoquinoline-3-carbonyl)-amino]-acetic acid]	3.896 fold	3710 relative light units	HO-1 (ng/mg total cell protein) (HO-1 protein): 102.68 ng/mg total cell protein; Adm gene expression, fold-increase above DMSO control ([2]; no KCN): 4.8 fold; Adm gene expression, fold-increase above DMSO control [2, 3]: 7.9 fold
O=C(O)CNC(=O)c1ncc2ccc(Sc3ccccc3)cc2c1O [Compound D, [(4-Hydroxy-6-phenylsulfanyl-isoquinoline-3-carbonyl)-amino]-acetic acid]		859.5 relative light units	Adm gene expression, fold-increase above DMSO control ([2]; no KCN): 2.2 fold; Adm gene expression, fold-increase above DMSO control [2, 3]: 4.2 fold
O=C(O)CNC(=O)c1nc(Cl)c2cc(Oc3ccccc3)ccc2c1O [Compound E, [(1-Chloro-4-hydroxy-7-phenoxy-isoquinoline-3-carbonyl)-amino]-acetic acid]		2043 relative light units	
O=C(O)CNC(=O)c1nc(Br)c2cc(Oc3ccccc3)ccc2c1O [Compound F, [(1-Bromo-4-hydroxy-7-phenoxy-isoquinoline-3-carbonyl)-amino]-acetic acid]		1134 relative light units	
O=C(O)CNC(=O)c1nc(Cl)c2ccccc2c1O [Compound H, [(1-Chloro-4-hydroxy-isoquinoline-3-carbonyl)-amino]-acetic acid]	1.298 fold	947 relative light units	HSP70-3 mRNA Levels Liver (gene encoding HSP70-3; Animal Study I: mice, oral gavage two times per day for 2.5 days, 200 mg/kg/day, four hours after final dose): 2.77; HSP70-3 mRNA Levels Liver (gene encoding HSP70-3; [4]): 1.441; HSP70-3 mRNA Levels Lung (gene encoding HSP70-3; [4]): 3.0
